The subject of test [1] is Spermatozoa. Briefly: Spermicidal activity in human semen assessed as induction of spermatozoa immotility at 0.1% w/v by Sander-Cramer method. The test is classed as functional, cell-based.
Test [2] concerns Spermatozoa. Briefly: Spermicidal activity in human semen assessed as induction of spermatozoa immotility by Sander-Cramer method. The class given is functional.
Test [3] has as its system Spermatozoa. Nature of the test: Spermicidal activity in human semen assessed as induction of spermatozoa immotility at <0.1% w/v by Sander-Cramer method. The test is classed as functional.
In the next test the test system is HeLa. Nature of the test: Cytotoxicity against human HeLa cells. The test is classed as cell-based.
In test [4] the test system is Spermatozoa. Briefly: Inhibition of free thiols level in human semen derived spermatozoa at 1% incubated for 15 mins by monobromobimane dye based fluorescence microscopy. The test is classed as functional, cell-based.

The source made the active and inactive calls. The rule behind the calls is not given here.

Turning to `COc1cc(/C=C/C(=O)C2CCOC2=O)ccc1O` (stereo unspecified), the result with Spermatozoa [1] was inactive.

Take `CC(=O)C1(CCN2CCCC2)CCOC1=O` (stereo unspecified): the MEC result in the test with Spermatozoa [2] is “inactive”.

For `O=C(/C=C/c1ccc(O)cc1)C1(CCN2CCCC2)CCOC1=O` (stereo unspecified), the outcome in the test on Spermatozoa [1] was inactive.

The IC50 is the concentration that gives 50% inhibition. Take `CN(C)c1ccc(/C=C/C(=O)C2(CCN3CCOCC3)CCOC2=O)cc1.O=C(O)C(O)C(O)C(=O)O` (stereo unspecified): the MEC in the test on Spermatozoa [3] and with Spermatozoa [2] was 0.5% each time. For the same compound, the IC50 in the test on HeLa turned out to be 1330 µg/mL.

Consider `CCN(CC)CCC1(C(=O)/C=C/c2ccc(O)c(OC)c2)CCOC1=O` (stereo unspecified), for which the result with Spermatozoa [1] was inactive.

As to `CN(C)CCCC1(C(=O)/C=C/c2ccc(O)cc2)CCOC1=O.O=C(O)C(O)C(O)C(=O)O` (stereo unspecified), the MEC with Spermatozoa [3] and in the test with Spermatozoa [2] was 0.5% in each case. In the test on HeLa, the IC50 amounted to 661 µg/mL.

Turning to `COc1cc(/C=C/C(=O)C2(CCCN(C)C)CCOC2=O)ccc1O.O=C(O)C(O)C(O)C(=O)O` (stereo unspecified), the MEC in the test with Spermatozoa [3] and with Spermatozoa [2] was 0.05% each time. This compound came in with an IC50 in the test on HeLa of 269 µg/mL. Further, the inhibition entry in the test on Spermatozoa [4] was “inactive”.

Take `CCN(CC)CCC1(C(=O)/C=C/c2ccc(O)cc2)CCOC1=O` (stereo unspecified): the result in the test with Spermatozoa [1] was inactive.

`COc1cc(/C=C/C(=O)C2(CCN3CCCC3)CCOC2=O)ccc1O` (stereo unspecified): the outcome with Spermatozoa [1] was inactive.

Turning to `COc1cc(/C=C/C(=O)C2(CCN3CCOCC3)CCOC2=O)ccc1O.O=C(O)C(O)C(O)C(=O)O` (stereo unspecified), the MEC with Spermatozoa [3] amounted to 0.1%; in the test on Spermatozoa [2], 0.5%. Besides, half-maximal inhibition with HeLa (IC50) required 848 µg/mL.

`CN(C)c1ccc(/C=C/C(=O)C2(CCN3CCCC3)CCOC2=O)cc1` (stereo unspecified): in the test on Spermatozoa [1], the outcome was inactive.

`CCN(CC)CCC1(C(=O)/C=C/c2ccc(N(C)C)cc2)CCOC1=O` (stereo unspecified): the outcome in the test on Spermatozoa [1] was inactive.

As for `O=C(/C=C/c1ccc(O)cc1)C1CCOC1=O` (stereo unspecified), the result in the test with Spermatozoa [1] was inactive. Further, the MEC result with Spermatozoa [2] was “inactive”.

Take `O=C(/C=C/c1ccc(O)cc1)C1(CCN2CCOCC2)CCOC1=O.O=C(O)C(O)C(O)C(=O)O` (stereo unspecified): the MEC in the test on Spermatozoa [3] and in the test with Spermatozoa [2] was 0.05% in each case. For the same compound, the 50% inhibitory concentration (IC50) in the test with HeLa came to 961 µg/mL. In addition, the inhibition result in the test on Spermatozoa [4] was “Active”.

For `CN(C)c1ccc(/C=C/C(=O)C2CCOC2=O)cc1` (stereo unspecified), the result in the test on Spermatozoa [1] was inactive. The MEC result in the test with Spermatozoa [2] was “inactive”.

As to `CCN(CC)CCC1(C(C)=O)CCOC1=O` (stereo unspecified), in the test on Spermatozoa [2], the MEC result is “inactive”.

In the case of `CCCCCCCCCc1ccc(OCCOCCOCCOCCOCCOCCOCCOCCOCCO)cc1` [NONOXYNOL 9], the MEC with Spermatozoa [3] came to 0.02%.

Take `CC(=O)C1(CCCN(C)C)CCOC1=O` (stereo unspecified): in the test with Spermatozoa [2], the MEC entry is “inactive”.

For `CN(C)CCCC1(C(=O)/C=C/c2ccc(N(C)C)cc2)CCOC1=O.O=C(O)C(O)C(O)C(=O)O` (stereo unspecified), the figures for the MEC in the test on Spermatozoa [3] and with Spermatozoa [2] were 0.1% and 0.5%, respectively. Further, the midpoint of inhibition in the test on HeLa, the IC50, lay at 1200 µg/mL.

With `CC(=O)C1(CCN2CCOCC2)CCOC1=O` (stereo unspecified), the MEC entry in the test with Spermatozoa [2] is “inactive”.
